Measurements as given in US8487104B2, “KAT II inhibitors” (Pfizer Inc., priority 2010, dated 2013).
Structures can show the parent of a compound that is named as a salt. Where two headings read alike, the source gives them in different places.

Legend:
human KATII enzyme = human KATII enzyme (Homo sapiens, UniProt Q8N5Z0); assay: KATII Kinetic Assay (kinact/KI determination); format: biochemical; settings: read-out: hKATII kinact/KI
Procedure: The compounds of the present invention are irreversible inhibitors of KATII. Potency of irreversible inhibitors is best characterized by kinact/KI (See Copeland, R. A.; “Evaluation of Enzyme Inhibitors in Drug Discovery,” Wiley, 2005).
Test compounds were dissolved in 100% DMSO and diluted to the required concentrations in 100% DMSO. An additional aqueous dilution was made so that the compound at 3× final concentration was 1.0% DMSO in the assay specific buffer. Compounds were tested at 11 concentrations. Final DMSO concentrations in the assay plate were equal to 0.33%.
KATII enzyme activity was followed by measuring the loss of absorbance of the L-KYN substrate at an absorbance wavelength of 370 nm. The KATII assays were run in a 384 well format at a final volume of 30 μL using 150 mM Tris Acetate buffer (pH7.0), 1 mM L-KYN,1 mM α-ketoglutaric acid, 70 μM PLP, 0.1% BGG and either 30 nM human KATII enzyme or 5 nM rat KATII enzyme KATII enzyme. Compound was diluted in 100% DMSO and spotted prior to the addition of the other reagents. Enzyme was always added last. Assay plates were sealed around the edges with tape and immediately read on a SpectraMax plate reader at an absorbance wavelength of 370 nm. The SpectraMax plate reader was set up to read every 5 min for 16 hours.
The following steps are taken to ensure consistent production of kinetic read data: • 1. A 10 μL aliquot of the compound dilutions (described above in compound preparation) was added to the assay plate by hand followed by a quick spin to ensure compound was collected at bottom of well. • 2. A 10 μL aliquot of substrate mix containing the L-KYN, a-ketoglutaric acid and PLP was then added to the assay plate via a Multidrop instrument. • 3. Finally, a 10 μL aliquot of a 3× concentration of enzyme stock soluton was added last to initiate the reaction via a Multidrop instrument. • 4. The microplate lid was placed onto the assay plate and taped to seal in humidity, and the assay plate was put into the SpectraMax reader. A quick vibration on the plate platform was done to ensure mixing, and the absorbance was read (wavelength of 370 nm) every 5 min over 16 h at room temperature. Determination of Potencies (kinact/Kl Values)
The direct substrate absorbance loss assay described above was performed for the determination of potencies (kinact/Kl values). The overall potency, kinact/K1 values, were determined using the general approach described by M. Mileni et al., Proc. Natl. Acad. Sci. USA 2008, 105 12820-12824 and K. Ahn et al. Chem. Biol. 2009, 16, 411-420. Reaction progress curves (decrease in A370 nm with time) were obtained in the presence of eleven concentrations of inhibitor with top dose at […]. A null inhibitor control is always included. Absorbance read data were collected for 16 hours at 5 minute intervals. […] Each progress curve was fit to a one phase exponential decay model (equation 1) to determine kobserved (kobs) values at each inhibitor concentration, where At is absorbance at time t, A0 is the absorbance at t=infinite, A1 is a total absorbance change (the absorbance difference between t=0 and t=infinite), and kobs is the first order rate constant for enzyme inactivation. […] When [I]<<K1, equation 2 is simplified to equation 3, where the kinact/Kl is calculated from the slope, kinact/[Kl(1+[S]/Km)], which is obtained from the kobs vs [I] linear regression fit. […]

[1] = target: human KAT II (hKAT II) enzyme (Homo sapiens, UniProt Q8N5Z0); assay: Human KAT II Inhibition Spectra Assay; format: biochemical
Chain of human KAT II (hKAT II) enzyme (Q8N5Z0 30-425): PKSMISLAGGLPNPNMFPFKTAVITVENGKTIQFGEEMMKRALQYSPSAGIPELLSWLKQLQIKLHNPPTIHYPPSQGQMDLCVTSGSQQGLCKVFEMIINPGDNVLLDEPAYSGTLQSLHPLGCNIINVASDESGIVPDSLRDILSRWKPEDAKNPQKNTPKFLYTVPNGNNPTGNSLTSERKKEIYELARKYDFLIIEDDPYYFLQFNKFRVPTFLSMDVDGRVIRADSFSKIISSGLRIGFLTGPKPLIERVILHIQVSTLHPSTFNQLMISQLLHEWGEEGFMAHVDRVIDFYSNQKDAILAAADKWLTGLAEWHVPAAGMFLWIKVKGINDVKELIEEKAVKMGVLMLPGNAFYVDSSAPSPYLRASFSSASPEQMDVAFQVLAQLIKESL
Procedure: Human KAT II Inhibition Spectra Assay Formation of kynurenic acid (KYNA) is indirectly assessed by a decrease in light absorbance at 370 nm (OD370) as the L-kynurenine (KYN) substrate is converted by the human KAT II (hKAT II) enzyme into KYNA. An inhibitor would therefore inhibit the decrease in OD370. The protocol was performed by placing the following reagents into a Costar 384 well black plate (30 μL total assay volume/well): • 10 μL of 3× concentrated compound; • 10 μL of 3× concentrated substrate mix (BGG (Sigma G-5009); 3 mM L-Kynurenine in 150 mM Tris Acetate (Sigma K3750); 3 mM α-ketoglutaric acid in 150 mM Tris Acetate (Sigma K2010); and 210 μM pyridoxal 5-phosphate (PLP) in 150 mM Tris Acetate (Sigma 9255)); and • 10 μL of 3× concentrated enzyme (15 nM enzyme in 150 mM Tris Acetate with 0.3% bovine serum). Plates were sealed and incubated at 37° C. for 15-20 h before reading OD370 on a SpectraMax Plus plate reader. IC50s were generated by comparing the efficacy of compounds across a concentration range to inhibit a reduction in the OD370 value relative to assay wells with DMSO added in place of concentrated compound. Biological data for the Examples may be found Tables 1 and 2.

human hepatocytes = assay: Human Hepatocyte Assay (HHEP); format: in vitro ADME; settings: 1 μM test compound, 0.5 million viable cells/mL
[2] = Pharmacokinetics Studies in Dog; format: in vivo; set-up: AUC/dose: unit not given beside the values; settings: dogs; for AUC / C0 / clearance / half-life / Cmax: male, beagle, dog, plasma
Procedure: Pharmacokinetics Studies in Dog Test substances (Examples 2-3) were administered by oral gavage or IV administration to groups of two dogs. The two male dogs were beagles obtained from Marshal Farms, weighing from about 9 to about 12 kg at start of treatment and ranging in age between approximately 4 to approximately 6 years. Blood samples were taken times of 0.25, 0.5, 1, 2, 4, 7, and 24 h after administration and submitted to analysis for the drug substance using an LC-MS-MS assay. Pharmacokinetic parameters derived from the plasma analytical data were determined using Watson 7.2.003.

[3] = Reactive Metabolite Assay; format: in vitro ADME
Procedure: [formula] Reactive Metabolite Assay Protocol Metabolite activity in Table 2 is measured using a reactive metabolite assay protocol as described in Reactive Metabolite assay protocol: See J. R. Soglia et al., J. Pharm. Biomed. Anal. 2004, 36, 105-116.

[4] = OD370 readout, 37° C., 15-20 h incubation, read-out: hKATII IC50
[5] = IV administration, dose = 0.5 mg/kg
[6] = oral administration, dose 5 mg/kg (Ex 3, 2), 2 mg/kg (Ex 5)

Chain of human KATII enzyme (Q8N5Z0 30-425): as above

Compound	kinact/KI (human KATII enzyme)	IC50 [1, 4]	HHEP CLint, app (human hepatocytes)	AUC/dose [2, 5]	AUC/dose [2, 6]	Cmax/dose [2, 6]	AUC [2, 5]	C0 [2, 5]	clearance [2, 5]	half-life [2, 5]	AUC [2, 6]	Cmax [2, 6]	half-life [2, 6]	Reactive Metabolite Formation [3]	kinact/KI (human KATII enzyme; 30 nM human KATII enzyme, room temperature)	IC50 [1]
N#Cc1ccc2c(c1)N(O)C(=O)[C@@H](N)C2 [Example 1, (3S)-3-Amino-1-hydroxy-2-oxo-1,2,3,4-tetrahydroquinoline-7-carbonitrile, HCl Salt]	46200 M⁻¹ s⁻¹	19 nM	24.8 μL/min/million	–	–	–	–	–	–	–	–	–	–	–	–	–
COC[C@H](C)Oc1ccc2c(c1)N(O)C(=O)[C@@H](N)C2 [Example 2, (3S)-3-Amino-1-hydroxy-7-[(1S)-2-methoxy-1-methylethoxy]-3,4-dihydroquinolin-2(1H)-one, HCl Salt]	25100 M⁻¹ s⁻¹	18 nM	19.8 μL/min/million	370	39	46	185 ng·h/mL	352 ng/mL	44.9 mL/min/kg	30 min	195 ng·h/mL	229 ng/mL	137 min	No	–	–
COCCOc1ccc2c(c1)N(O)C(=O)[C@@H](N)C2 [Example 3, (3S)-3-Amino-1-hydroxy-7-(2-methoxyethoxy)-3,4-dihydroquinolin-2(1H)-one, HCl Salt]	–	22 nM	30.1 μL/min/million	388	31.2	39.6	194 ng·h/mL	446 ng/mL	43.4 mL/min/kg	54 min	156 ng·h/mL	198 ng/mL	63 min	No	22300 M⁻¹ s⁻¹	–
N[C@H]1Cc2ccccc2N(O)C1=O [Example 4, (3S)-3-Amino-1-hydroxy-3,4-dihydroquinolin-2(1H)-one]	21500 M⁻¹ s⁻¹	27 nM	39.6 μL/min/million	–	–	–	–	–	–	–	–	–	–	–	–	–
CC(C)Oc1ccc2c(c1)N(O)C(=O)[C@@H](N)C2 [Example 5, (3S)-3-Amino-1-hydroxy-7-isopropoxy-3,4-dihydroquinolin-2(1H)-one, HCl Salt]	17100 M⁻¹ s⁻¹	–	44.7 μL/min/million	436	9.3	9.8	218 ng·h/mL	265 ng/mL	38.7 mL/min/kg	36 min	18.6 ng·h/mL	19.6 ng/mL	27.6 min	Yes	–	32 nM
N#Cc1cccc2c1N(O)C(=O)C(N)C2 (stereo not shown) [Example 6, 3-Amino-1-hydroxy-2-oxo-1,2,3,4-tetrahydroquinoline-8-carbonitrile, HCl Salt]	–	30 nM	–	–	–	–	–	–	–	–	–	–	–	–	–	–
